Test results from patent US9221868B2, “Uridine di- or tri-phosphate derivatives and uses thereof” (BAR-ILAN UNIVERSITY, priority 2010, dated 2015).
Values joined by “and” are separate entries in the source; they are usually repeats but may differ in a detail not shown here. Identical values can stand only once.

Columns and labels:
physchem = conditions: for Half-life (t1/2) of hydrolysis at pH 1.4 / half-life: buffer, pH 1.4; for Rate constant of phosphate ester hydrolysis at pH 1.4: pH 1.4, 37° C., pseudo-first-order
Experimental: (§1) All stability experiments were performed in duplicates.
The stability of UDP, 11, 12 and 13A in a buffer solution (pH 1.4) was evaluated by ^31P NMR at 37° C. for monitoring possible dephosphorylation products (the signal of the phosphate hydrolysis products is at ˜0 ppm, while that of the borano phosphate analogues is at ˜85 ppm). NMR spectra were recorded on a Bruker DMX-600 spectrometer with a ^31P NMR probe (isotope frequency of 240 MHz) using 85% H3PO4 as an external reference.
Sodium salts of UDP, 11, 12 and 13A were dissolved in 0.45 ml of KCl/HCl buffer (pH 1.4) and D2O (0.05 ml) was added. The final pH was adjusted to pH 1.4. pH measurements were performed with an Metrohm pH electrode and a Metrohm 827 meter. Spectra were recorded at 15 min, 1 h, or 24 h time intervals at 37° C. For experiments that were several days long, the solution was kept in an oil bath at 37° C. and spectra were recorded at ca. 24 h time intervals. The phosphate ester hydrolysis rate was determined by measuring the change of the integration of one of the phosphates signals of the starting material with time.

human NPP1 = target: T1, human NPP1 (Homo sapiens, UniProt P22413); test: Hydrolysis by NPP1 (HPLC); assay type: in vitro ADME; conditions: 2 h at 37° C., pH 8.5
T1 construct: Center of Research in Rheumatology and Immunology, Laval University (Québec, Canada), provided and not purchased
T1 sequence (P22413 1-925): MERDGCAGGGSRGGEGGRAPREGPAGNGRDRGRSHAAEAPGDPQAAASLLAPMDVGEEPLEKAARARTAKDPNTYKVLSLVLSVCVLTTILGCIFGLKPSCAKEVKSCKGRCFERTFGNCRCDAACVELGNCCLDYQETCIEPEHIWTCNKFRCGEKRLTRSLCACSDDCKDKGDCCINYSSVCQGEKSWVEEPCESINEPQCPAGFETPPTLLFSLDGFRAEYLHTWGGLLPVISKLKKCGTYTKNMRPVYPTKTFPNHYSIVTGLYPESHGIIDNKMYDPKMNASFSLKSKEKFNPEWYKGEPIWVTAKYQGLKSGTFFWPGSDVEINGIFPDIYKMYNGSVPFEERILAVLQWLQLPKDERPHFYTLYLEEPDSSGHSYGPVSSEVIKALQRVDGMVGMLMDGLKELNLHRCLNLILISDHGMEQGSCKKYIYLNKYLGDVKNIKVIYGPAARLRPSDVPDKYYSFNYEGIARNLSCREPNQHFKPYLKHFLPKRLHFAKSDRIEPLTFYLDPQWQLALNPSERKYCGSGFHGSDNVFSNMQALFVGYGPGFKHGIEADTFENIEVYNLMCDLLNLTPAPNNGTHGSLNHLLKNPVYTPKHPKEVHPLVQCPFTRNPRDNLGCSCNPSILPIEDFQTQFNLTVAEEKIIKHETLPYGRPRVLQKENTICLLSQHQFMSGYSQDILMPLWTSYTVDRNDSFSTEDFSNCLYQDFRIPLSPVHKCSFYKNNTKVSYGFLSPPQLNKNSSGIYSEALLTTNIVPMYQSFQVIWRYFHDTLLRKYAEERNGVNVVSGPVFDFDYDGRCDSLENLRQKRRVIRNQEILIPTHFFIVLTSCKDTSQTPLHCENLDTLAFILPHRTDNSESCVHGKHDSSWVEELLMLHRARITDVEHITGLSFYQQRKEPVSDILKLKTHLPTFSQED
Experimental: as §1
(§2) In this study, the hydrolysis rate of analogue 13A as compared to UDP and analogue 12, by human NPP1 and NPP3 after incubation at 37° C. in appropriate buffer, was determined.
(§3) 56.15 μg or 57.78 μg of human NPP1 or NPP3 extract, respectively, was added to 0.575 ml the incubation mixture (1 mM […], 200 mM NaCl, 10 mM KCl and 100 mM Tris, pH 8.5) and preincubated at 37° C. for 3 min. Reaction was initiated by the addition of 0.015 ml of 4 mM of UDP, 12 or 13A. The reaction was stopped after incubation of 2 h or 3 h with NPP1 or NPP3, respectively, by transferring a 0.1 ml aliquot from the reaction mixture to 0.350 ml ice-cold 1 M perchloric acid. These samples were centrifuged for 1 min at 10000×g. Supernatants were neutralized with 1 M KOH in 4° C. and centrifuged 1 min at 10000×g. The reaction mixture was filtered and freeze-dried.

human NPP3 = target: T2, human NPP3 (Homo sapiens, UniProt O14638); test: Hydrolysis by NPP3 (HPLC); assay type: in vitro ADME; conditions: 3 h at 37° C., pH 8.5
T2 construct: Center of Research in Rheumatology and Immunology, Laval University (Québec, Canada), provided and not purchased
T2 sequence (O14638 1-875): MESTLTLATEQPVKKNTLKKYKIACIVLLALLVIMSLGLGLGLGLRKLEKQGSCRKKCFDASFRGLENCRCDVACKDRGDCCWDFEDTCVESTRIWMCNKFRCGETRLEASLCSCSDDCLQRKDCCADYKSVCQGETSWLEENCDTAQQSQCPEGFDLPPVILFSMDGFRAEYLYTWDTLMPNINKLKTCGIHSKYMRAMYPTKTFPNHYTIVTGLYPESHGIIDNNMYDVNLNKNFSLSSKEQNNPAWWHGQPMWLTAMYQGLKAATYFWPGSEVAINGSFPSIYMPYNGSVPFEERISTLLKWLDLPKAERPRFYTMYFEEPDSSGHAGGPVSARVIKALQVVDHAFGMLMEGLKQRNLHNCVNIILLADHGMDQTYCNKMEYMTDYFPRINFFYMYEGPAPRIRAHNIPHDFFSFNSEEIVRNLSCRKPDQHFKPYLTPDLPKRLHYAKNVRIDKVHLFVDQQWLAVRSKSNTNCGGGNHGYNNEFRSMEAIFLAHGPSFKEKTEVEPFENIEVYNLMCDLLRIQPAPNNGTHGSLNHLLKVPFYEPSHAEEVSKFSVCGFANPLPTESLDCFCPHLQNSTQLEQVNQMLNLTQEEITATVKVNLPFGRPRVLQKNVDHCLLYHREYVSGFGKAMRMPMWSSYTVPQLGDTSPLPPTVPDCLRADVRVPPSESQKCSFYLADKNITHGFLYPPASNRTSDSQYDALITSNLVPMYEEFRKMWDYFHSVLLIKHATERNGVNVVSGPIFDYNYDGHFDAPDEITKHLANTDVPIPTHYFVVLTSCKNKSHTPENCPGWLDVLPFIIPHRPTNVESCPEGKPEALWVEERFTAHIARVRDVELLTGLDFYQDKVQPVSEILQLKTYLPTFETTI
Experimental: as §1, §2, §3

[1] = Stability in human blood serum (HPLC); conditions: for half-life at 0.14 mg/ml: human, human blood serum diluted in RPMI-1640
Experimental: Human blood serum was obtained from a blood bank (Tel-Hashomer Hospital, Israel). All stability experiments were performed in duplicates.
The assay mixture containing 0.1 mg each analogue in deionized water (4.5 μl), human blood serum (180 μl) and RPMI-1640 medium (540 μl) (Eliahu et al., 2010a) was incubated at 37° C. for 0-24 h. At 0.5-12 h intervals, each sample was heated to 80° C. for 30 min, treated with CM Sephadex (1-2 mg), shaken for 2 h and centrifuged for 6 min (12000 rpm), and the aqueous layer was collected and extracted with chloroform (2×500 μl). The aqueous layer was freeze-dried and then dissolved in deionized water (100 μl). Samples were loaded onto an activated Starta X-AW weak anion exchange cartridge, washed with H2O (1 ml) and eluted with MeOH:H2O (1:1, 1 ml) followed by NH4OH:MeOH:H2O (2:25:73, 1 ml), and then freeze-dried. The resulting residue was analyzed by HPLC on a Gemini analytical column (5μ C-18 557 110 A; 150 mm×4.60 mm), using gradient elution with solvent system I (for UDP and 12—A:B 96:4 over 10 min) or II (for uridine-5′-O-(α-borano diphosphate) and 13A—A:B 97.5:2.5 over 10 min) at a flow rate of 1 ml/min. […] The percentage of compound degradation was calculated vs. control, to take into consideration the degradation of the compounds due to the work up following the enzymatic reaction. Therefore, each of the samples was compared to a control which was put through the same workup, but to which no serum was added. The percentage of degradation was calculated from the area under the curve of the nucleoside monophosphate peak, after subtraction of the control, which is the amount of the nucleoside monophosphate peak formed due to chemical hydrolysis.

| Structure (SMILES) | Half-life (t1/2) of hydrolysis at pH 1.4 (physchem) [days] | half-life (physchem) [h] | Rate constant of phosphate ester hydrolysis at pH 1.4 (physchem) | Hydrolysis percentage by NPP1 (human NPP1) | Hydrolysis percentage by NPP3 (human NPP3) [%] | half-life at 0.14 mg/ml [1] [h] | Half-life in human blood serum ([1]; human blood serum and RPMI-1640, 37° C.) [h] |
| --- | --- | --- | --- | --- | --- | --- | --- |
| COc1cn([C@@H]2O[C@H](COP(=O)(O)OP(=O)(O)O)[C@@H](O)[C@H]2O)c(=O)[nH]c1=O [Analogue 12, 5-methoxyuridine diphosphate] | 13 | ~312 | 6.25×10^−7 s^−1 | 49% and 51% | 36 | 11.9 |  |
| O=c1ccn([C@@H]2O[C@H](COP(=O)(O)OP(=O)(O)O)[C@@H](O)[C@H]2O)c(=O)[nH]1 [UDP, reference compound] | ~12 |  | 6.66×10^−7 s^−1 | 50% | 45 |  | 2.4 |
| [BH3-][P+](O)(OCC1OC(n2cc(OC)c(=O)[nH]c2=O)C(O)C1O)OP(=O)(O)O (single isomer, unassigned) [Analogue 13A, 5-methoxyuridine-5′-O-(α-boranodiphosphate)] |  | 16.9 |  | 15% | 28 | 17 |  |
